From patent publication US11007148B2, “Amphiphilic block copolymers for delivery of active agents” (priority 2014, dated 2021)
Counter-ions that a name gives are not always drawn.

Columns and labels:
[1] = free drug; cited from earlier work
[2] = mouse, in vivo
Source text: In this example the kinetic properties of loaded micelles with PTX are studied in vivo using the fluorophore labels Cy7 and Cy5.5. Cy7 was covalently linked to the polymer chain and reports about the fate of the injected micelles; Cy5.5 was physically loaded in the core of the micelles and used as a modal drug.
CD-1 nude female mice (n=5) were fed with chlorophyll-free food pellets and water ad libitum, and caged in ventilated cages and clinically controlled rooms and atmosphere.

Row | Molecule | Log P [1] | half-life of the Cy5.5 label relative to the micelles [2]
1 | C[C@H](NC(=O)Cc1cc(F)cc(F)c1)C(=O)N[C@H](C(=O)OC(C)(C)C)c1ccccc1 [DAPT] | 3.54 | –
2 | Cy5.5 | – | shorter half-life
3 | CC(=O)O[C@H]1C(=O)[C@@]2(C)[C@H]([C@H](OC(=O)c3ccccc3)[C@]3(O)C[C@H](OC(=O)[C@H](O)[C@@H](NC(=O)c4ccccc4)c4ccccc4)C(C)=C1C3(C)C)[C@]1(OC(C)=O)CO[C@@H]1C[C@@H]2O [Paclitaxel] | 4.7 | –
4 | COc1nc2ccc(Br)cc2cc1[C@@H](c1ccccc1)[C@@](O)(CCN(C)C)c1cccc2ccccc12 [Bedaquiline] | 7.59 | –
5 | COc1cccc2c1C(=O)c1c(O)c3c(c(O)c1C2=O)C[C@@](O)(C(=O)CO)C[C@@H]3O[C@H]1C[C@H](N)[C@H](O)[C@H](C)O1 [DOX•HCl, doxorubicin hydrochloride] | 2.82 | –
